# Publication PMC6138237, “Machine intelligence decrypts β-lapachone as an allosteric 5-lipoxygenase inhibitor” (Chemical Science, 2018)
# Like-named read-outs stand apart in the source and are kept apart here.
# Legend:
# ERK2 = ERK2 (Homo sapiens, UniProt P28482); assay: ExpresS Diversity Kinase Profile, Cerep (LANCE): ERK2; assay type: biochemical
# FGFR3 = FGFR3 (Homo sapiens, UniProt P22607); assay: ExpresS Diversity Kinase Profile, Cerep (LANCE): FGFR3; assay type: biochemical
# PKCβ2 = PKCβ2 (Homo sapiens, UniProt P05771); assay: ExpresS Diversity Kinase Profile, Cerep (LANCE): PKCβ2; assay type: biochemical
# EP1 = target: T1, EP1 (Homo sapiens, UniProt P34995); assay: EP1 functional agonist assay, Cerep (intracellular Ca2+)
# T1 sequence (P34995 1-402): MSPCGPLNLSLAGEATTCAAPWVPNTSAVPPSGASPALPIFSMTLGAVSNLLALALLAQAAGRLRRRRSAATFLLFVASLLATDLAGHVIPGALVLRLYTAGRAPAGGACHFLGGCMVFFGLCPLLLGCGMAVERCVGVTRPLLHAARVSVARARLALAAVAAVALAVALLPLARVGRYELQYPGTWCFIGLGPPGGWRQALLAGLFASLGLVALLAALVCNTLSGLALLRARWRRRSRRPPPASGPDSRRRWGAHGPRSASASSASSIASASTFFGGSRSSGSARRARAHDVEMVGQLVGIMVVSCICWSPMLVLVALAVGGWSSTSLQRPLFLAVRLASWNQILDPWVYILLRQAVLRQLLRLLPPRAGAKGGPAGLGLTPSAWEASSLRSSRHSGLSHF
# CDK2 = CDK2 (Homo sapiens, UniProt P24941); assay: ExpresS Diversity Kinase Profile, Cerep (LANCE): CDK2; assay type: biochemical
# MNK2 = MNK2 (Homo sapiens, UniProt Q9HBH9); assay: ExpresS Diversity Kinase Profile, Cerep (LANCE): MNK2; assay type: biochemical
# TRPV1 [1] = target: T2, TRPV1 (Homo sapiens, UniProt Q8NER1); assay: TRPV1 functional antagonist assay, Cerep (capsaicin 30 nM); assay type: cell-based
# MAPKAPK2 = MAPKAPK2 (Homo sapiens, UniProt P49137); assay: ExpresS Diversity Kinase Profile, Cerep (LANCE): MAPKAPK2; assay type: biochemical
# p38α = p38α (Homo sapiens, UniProt Q16539); assay: ExpresS Diversity Kinase Profile, Cerep (LANCE): p38α; assay type: biochemical; details: 150 µM
# CHK2 = CHK2 (Homo sapiens, UniProt O96017); assay: ExpresS Diversity Kinase Profile, Cerep (LANCE): CHK2; assay type: biochemical
# CaMK2α = CaMK2α (Homo sapiens, UniProt Q9UQM7); assay: ExpresS Diversity Kinase Profile, Cerep (LANCE): CaMK2α; assay type: biochemical
# GSK3β = GSK3β (Homo sapiens, UniProt P49841); assay: ExpresS Diversity Kinase Profile, Cerep (LANCE): GSK3β; assay type: biochemical
# TRPV1 [2] = target: T2, TRPV1; assay: TRPV1 functional agonist assay, Cerep (intracellular Ca2+); assay type: cell-based; details: TRPV1 (agonist), 150 µM
# 12-LO = target: T3, 12-LO (Homo sapiens, UniProt P18054); assay: 12-LO inhibition in intact human neutrophils
# T3 sequence (P18054 1-663): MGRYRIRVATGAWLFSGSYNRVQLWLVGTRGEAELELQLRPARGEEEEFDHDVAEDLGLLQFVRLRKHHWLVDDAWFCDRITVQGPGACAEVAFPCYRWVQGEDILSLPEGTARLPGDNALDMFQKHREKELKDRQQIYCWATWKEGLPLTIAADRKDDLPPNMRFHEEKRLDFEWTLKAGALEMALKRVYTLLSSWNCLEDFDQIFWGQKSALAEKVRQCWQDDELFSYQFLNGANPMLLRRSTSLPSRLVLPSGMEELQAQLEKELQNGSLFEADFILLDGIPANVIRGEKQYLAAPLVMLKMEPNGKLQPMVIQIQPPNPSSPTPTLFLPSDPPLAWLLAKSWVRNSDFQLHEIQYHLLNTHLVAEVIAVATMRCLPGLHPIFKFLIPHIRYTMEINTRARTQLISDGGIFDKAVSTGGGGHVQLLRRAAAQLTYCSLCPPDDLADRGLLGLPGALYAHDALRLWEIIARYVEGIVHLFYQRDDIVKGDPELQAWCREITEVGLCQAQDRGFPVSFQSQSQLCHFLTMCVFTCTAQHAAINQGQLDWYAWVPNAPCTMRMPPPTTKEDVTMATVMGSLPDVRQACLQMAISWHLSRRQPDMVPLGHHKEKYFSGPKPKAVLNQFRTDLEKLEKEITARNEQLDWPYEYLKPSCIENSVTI
# [3] = n = 2, read-out: % Inhibition of control values, Mean
# [4] = read-out: % Inhibition of control values, 1st measurement
# [5] = read-out: % Inhibition of control values, 2nd measurement
# [6] = Flag: Interference, read-out: % Inhibition of control values, 1st measurement
# [7] = Flag: Interference, read-out: % Inhibition of control values, 2nd measurement
# [8] = n = 2, Flag: Interference, read-out: % Inhibition of control values, Mean
# [9] = read-out: % of control values, 1st measurement
# [10] = read-out: % of control values, 2nd measurement
# CaMK2α, sequence (Q9UQM7 whole entry): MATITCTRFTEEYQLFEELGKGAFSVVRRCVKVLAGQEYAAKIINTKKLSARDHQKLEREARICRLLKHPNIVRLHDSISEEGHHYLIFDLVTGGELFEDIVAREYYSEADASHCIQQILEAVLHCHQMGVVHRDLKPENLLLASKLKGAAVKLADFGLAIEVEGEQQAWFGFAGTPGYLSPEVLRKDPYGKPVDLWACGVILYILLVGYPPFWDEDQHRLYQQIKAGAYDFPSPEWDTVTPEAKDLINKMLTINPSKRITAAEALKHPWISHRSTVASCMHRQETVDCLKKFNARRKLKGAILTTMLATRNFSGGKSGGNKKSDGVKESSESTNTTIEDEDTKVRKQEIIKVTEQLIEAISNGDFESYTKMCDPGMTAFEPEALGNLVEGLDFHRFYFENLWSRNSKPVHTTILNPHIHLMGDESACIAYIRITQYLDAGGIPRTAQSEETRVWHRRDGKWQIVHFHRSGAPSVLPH
# CHK2, sequence (O96017 whole entry): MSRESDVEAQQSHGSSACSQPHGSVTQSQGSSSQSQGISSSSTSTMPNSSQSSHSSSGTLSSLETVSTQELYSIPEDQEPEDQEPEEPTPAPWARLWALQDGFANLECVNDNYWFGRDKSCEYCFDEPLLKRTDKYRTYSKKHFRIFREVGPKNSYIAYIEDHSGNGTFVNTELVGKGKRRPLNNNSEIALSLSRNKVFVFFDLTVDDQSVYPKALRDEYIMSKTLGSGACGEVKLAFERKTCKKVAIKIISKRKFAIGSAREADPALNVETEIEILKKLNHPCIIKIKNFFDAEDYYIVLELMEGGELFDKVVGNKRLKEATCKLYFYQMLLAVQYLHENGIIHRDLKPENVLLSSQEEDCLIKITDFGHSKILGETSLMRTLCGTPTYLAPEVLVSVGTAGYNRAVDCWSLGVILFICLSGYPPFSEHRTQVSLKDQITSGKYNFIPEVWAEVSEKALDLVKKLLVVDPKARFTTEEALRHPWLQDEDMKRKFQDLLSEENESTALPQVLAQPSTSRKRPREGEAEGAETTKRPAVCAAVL
# PKCβ2, sequence (P05771 1-673 isoform P05771-2): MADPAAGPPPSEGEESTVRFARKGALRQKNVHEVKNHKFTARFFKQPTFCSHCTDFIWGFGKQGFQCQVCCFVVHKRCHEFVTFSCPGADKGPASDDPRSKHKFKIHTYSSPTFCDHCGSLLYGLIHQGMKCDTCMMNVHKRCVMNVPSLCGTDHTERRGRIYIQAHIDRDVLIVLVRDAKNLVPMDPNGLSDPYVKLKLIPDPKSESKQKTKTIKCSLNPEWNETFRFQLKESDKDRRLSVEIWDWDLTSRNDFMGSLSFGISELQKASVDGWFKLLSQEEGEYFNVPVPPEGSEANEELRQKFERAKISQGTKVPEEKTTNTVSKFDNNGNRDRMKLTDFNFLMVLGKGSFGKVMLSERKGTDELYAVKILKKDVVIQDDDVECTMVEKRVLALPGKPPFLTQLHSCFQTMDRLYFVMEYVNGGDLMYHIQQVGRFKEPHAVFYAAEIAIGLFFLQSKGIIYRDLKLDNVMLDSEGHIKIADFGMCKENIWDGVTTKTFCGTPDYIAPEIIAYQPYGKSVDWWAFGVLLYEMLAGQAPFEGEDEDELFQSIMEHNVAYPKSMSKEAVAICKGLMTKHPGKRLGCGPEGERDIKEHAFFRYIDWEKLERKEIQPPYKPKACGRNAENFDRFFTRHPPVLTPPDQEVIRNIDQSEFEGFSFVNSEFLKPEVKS
# p38α, sequence (Q16539 whole entry): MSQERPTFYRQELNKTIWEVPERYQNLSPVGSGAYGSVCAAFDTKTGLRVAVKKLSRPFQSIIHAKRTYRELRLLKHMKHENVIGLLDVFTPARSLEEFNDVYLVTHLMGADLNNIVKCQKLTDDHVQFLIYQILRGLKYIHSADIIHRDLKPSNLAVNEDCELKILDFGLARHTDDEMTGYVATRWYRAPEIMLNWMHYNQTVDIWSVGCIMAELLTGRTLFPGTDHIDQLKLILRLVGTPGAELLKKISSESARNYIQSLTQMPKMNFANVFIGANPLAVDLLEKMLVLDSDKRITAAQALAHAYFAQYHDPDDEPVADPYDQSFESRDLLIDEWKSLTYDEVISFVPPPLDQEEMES
# MAPKAPK2, sequence (P49137 whole entry): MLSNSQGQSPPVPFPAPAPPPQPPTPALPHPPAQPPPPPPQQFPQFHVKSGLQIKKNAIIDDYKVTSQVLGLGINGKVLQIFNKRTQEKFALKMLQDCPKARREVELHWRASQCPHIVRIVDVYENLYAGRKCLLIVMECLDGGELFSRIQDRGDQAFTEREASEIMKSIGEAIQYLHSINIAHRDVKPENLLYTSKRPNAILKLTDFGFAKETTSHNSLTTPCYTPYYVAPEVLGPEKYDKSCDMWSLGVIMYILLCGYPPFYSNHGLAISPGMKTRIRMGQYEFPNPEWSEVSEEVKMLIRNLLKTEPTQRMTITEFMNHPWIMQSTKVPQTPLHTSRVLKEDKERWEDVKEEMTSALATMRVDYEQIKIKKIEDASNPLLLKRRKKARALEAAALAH
# MNK2, sequence (Q9HBH9 whole entry): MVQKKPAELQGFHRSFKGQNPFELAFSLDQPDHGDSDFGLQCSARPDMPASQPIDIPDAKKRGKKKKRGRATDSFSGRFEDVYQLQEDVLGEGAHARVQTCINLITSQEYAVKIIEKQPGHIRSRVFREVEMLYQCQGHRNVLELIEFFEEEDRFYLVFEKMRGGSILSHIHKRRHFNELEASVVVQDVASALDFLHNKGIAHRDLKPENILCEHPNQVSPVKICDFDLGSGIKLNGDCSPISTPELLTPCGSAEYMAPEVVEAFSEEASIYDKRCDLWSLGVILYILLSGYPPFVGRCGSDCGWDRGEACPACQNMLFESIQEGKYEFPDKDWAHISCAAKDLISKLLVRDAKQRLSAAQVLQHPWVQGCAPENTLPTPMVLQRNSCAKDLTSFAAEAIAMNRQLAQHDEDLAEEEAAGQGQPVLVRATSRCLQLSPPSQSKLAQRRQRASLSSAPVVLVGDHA
# ERK2, sequence (P28482 whole entry): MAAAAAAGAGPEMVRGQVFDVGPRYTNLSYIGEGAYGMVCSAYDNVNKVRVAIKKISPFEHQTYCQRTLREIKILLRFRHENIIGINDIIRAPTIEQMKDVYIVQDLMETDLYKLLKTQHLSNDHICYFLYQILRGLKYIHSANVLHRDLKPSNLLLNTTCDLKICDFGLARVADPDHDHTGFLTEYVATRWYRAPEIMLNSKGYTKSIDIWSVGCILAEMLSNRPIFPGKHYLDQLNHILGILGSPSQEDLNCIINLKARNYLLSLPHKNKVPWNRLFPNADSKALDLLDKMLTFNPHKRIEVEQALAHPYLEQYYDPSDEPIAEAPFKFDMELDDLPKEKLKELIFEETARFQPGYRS
# FGFR3, sequence (P22607 23-806): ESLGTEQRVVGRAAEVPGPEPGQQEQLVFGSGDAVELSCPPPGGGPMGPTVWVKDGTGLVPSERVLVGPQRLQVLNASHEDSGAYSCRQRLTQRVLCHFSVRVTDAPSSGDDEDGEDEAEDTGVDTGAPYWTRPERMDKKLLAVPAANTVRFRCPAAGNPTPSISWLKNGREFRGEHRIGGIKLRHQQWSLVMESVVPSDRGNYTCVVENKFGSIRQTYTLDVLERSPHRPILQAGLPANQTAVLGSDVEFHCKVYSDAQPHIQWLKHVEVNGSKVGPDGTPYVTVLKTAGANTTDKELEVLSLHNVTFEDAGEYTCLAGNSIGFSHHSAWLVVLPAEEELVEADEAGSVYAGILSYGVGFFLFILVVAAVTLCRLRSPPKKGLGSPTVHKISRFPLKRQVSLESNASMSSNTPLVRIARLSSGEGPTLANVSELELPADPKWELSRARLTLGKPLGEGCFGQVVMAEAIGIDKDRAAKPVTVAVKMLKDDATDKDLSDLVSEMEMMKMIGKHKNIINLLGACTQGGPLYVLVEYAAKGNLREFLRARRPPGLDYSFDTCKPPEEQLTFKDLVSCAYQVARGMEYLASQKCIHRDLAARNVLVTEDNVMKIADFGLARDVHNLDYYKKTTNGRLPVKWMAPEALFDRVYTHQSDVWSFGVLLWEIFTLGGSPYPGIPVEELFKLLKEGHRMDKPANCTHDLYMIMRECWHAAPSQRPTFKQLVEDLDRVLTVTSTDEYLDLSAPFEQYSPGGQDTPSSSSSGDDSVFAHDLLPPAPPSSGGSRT
# T2 sequence (Q8NER1 whole entry): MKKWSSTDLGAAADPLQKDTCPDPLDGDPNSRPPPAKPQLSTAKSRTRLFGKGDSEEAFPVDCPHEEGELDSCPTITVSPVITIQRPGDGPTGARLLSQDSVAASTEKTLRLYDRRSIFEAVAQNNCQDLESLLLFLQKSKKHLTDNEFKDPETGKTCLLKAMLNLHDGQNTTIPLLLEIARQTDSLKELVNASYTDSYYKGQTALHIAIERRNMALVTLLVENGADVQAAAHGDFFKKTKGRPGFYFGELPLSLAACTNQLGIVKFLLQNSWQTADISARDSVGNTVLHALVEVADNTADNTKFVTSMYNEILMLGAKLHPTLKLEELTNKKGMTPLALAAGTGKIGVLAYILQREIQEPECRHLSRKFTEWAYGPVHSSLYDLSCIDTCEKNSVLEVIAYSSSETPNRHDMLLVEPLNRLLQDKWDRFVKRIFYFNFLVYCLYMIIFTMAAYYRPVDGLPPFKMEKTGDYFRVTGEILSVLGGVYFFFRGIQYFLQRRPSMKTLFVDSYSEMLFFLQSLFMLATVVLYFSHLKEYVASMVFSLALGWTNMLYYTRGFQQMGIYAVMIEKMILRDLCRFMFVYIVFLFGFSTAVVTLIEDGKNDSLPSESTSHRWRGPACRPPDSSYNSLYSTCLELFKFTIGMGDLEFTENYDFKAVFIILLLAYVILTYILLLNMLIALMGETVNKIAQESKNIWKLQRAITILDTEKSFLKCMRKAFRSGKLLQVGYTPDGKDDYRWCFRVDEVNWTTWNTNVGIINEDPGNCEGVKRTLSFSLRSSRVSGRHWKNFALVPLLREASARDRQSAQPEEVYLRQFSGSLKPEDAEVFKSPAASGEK
smiles,measurement,setting,value
CC1(C)CCC2=C(O1)c1ccccc1C(=O)C2=O [β-Lapachone],inhibition at 150 µM,ERK2; [3],45.9%
same,inhibition at 150 µM,ERK2; [4],44.8%
same,inhibition at 150 µM,ERK2; [5],46.9%
same,inhibition at 150 µM,FGFR3; [6],76.5%
same,inhibition at 150 µM,FGFR3; [7],85.1%
same,inhibition at 150 µM,FGFR3; [8],80.8%
same,inhibition at 150 µM,PKCβ2; [3],34%
same,inhibition at 150 µM,PKCβ2; [4],36.5%
same,inhibition at 150 µM,PKCβ2; [5],31.6%
same,remaining activity at 150 µM,EP1; [9],-11.9%
same,remaining activity at 150 µM,EP1; [10],-11.9%
same,remaining activity at 150 µM,"EP1; read-out: % of control values, Mean",-11.9%
same,inhibition at 150 µM,CDK2; [3],78.2%
same,inhibition at 150 µM,CDK2; [4],79.4%
same,inhibition at 150 µM,CDK2; [5],77.1%
same,inhibition at 150 µM,MNK2; [3],80.1%
same,inhibition at 150 µM,MNK2; [4],78.1%
same,inhibition at 150 µM,MNK2; [5],82.1%
same,IC50,TRPV1 [1],~100 µM
same,inhibition at 150 µM,MAPKAPK2; [6],-14.5%
same,inhibition at 150 µM,MAPKAPK2; [7],-2.7%
same,inhibition at 150 µM,MAPKAPK2; [8],-8.6%
same,inhibition at 150 µM,p38α; [3],25.1%
same,inhibition at 150 µM,p38α; [4],27.1%
same,inhibition at 150 µM,p38α; [5],23.1%
same,inhibition at 150 µM,CHK2; [6],46.6%
same,inhibition at 150 µM,CHK2; [7],59.5%
same,inhibition at 150 µM,CHK2; [8],53.1%
same,inhibition at 150 µM,CaMK2α; [3],54.8%
same,inhibition at 150 µM,CaMK2α; [4],61.5%
same,inhibition at 150 µM,CaMK2α; [5],48%
same,inhibition at 150 µM,GSK3β; [3],94.2%
same,inhibition at 150 µM,GSK3β; [4],95%
same,inhibition at 150 µM,GSK3β; [5],93.4%
same,remaining activity at 150 µM,"TRPV1 [2]; n = 2, read-out: % of control values, Mean",-4.6%
same,remaining activity at 150 µM,TRPV1 [2]; [9],-7.3%
same,remaining activity at 150 µM,TRPV1 [2]; [10],-1.9%
same,IC50,12-LO,> 30 µM
